According to PubChem BioAssay (NCI):
Where “and” joins values, the source holds several entries; their conditions need not be identical. Identical values can stand only once.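 All cell lines were grown in 96-well plates and treated with compound for 48 hours. GI50: concentration for 50% inhibition of growth. At the TGI there is no net growth.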

Assays:
Assay in all cases: NCI-60 cell line screen, 48 h
DU-145 prostate = system: DU-145 prostate
NCI-H522 lung = system: NCI-H522 lung
OVCAR-3 ovarian = system: OVCAR-3 ovarian
SN12C renal = system: SN12C renal
HT29 colon = system: HT29 colon
OVCAR-8 ovarian = system: OVCAR-8 ovarian
CAKI-1 renal = system: CAKI-1 renal
OVCAR-4 ovarian = system: OVCAR-4 ovarian
M14 melanoma = system: M14 melanoma
MALME-3M melanoma = system: MALME-3M melanoma

Compound	GI50 (DU-145 prostate)	TGI (DU-145 prostate)	GI50 (NCI-H522 lung)	TGI (NCI-H522 lung)	GI50 (OVCAR-3 ovarian)	TGI (OVCAR-3 ovarian)	GI50 (SN12C renal)	TGI (SN12C renal)	GI50 (HT29 colon)	TGI (HT29 colon)	GI50 (OVCAR-8 ovarian)	TGI (OVCAR-8 ovarian)	GI50 (CAKI-1 renal)	TGI (CAKI-1 renal)	GI50 (OVCAR-4 ovarian)	TGI (OVCAR-4 ovarian)	GI50 (M14 melanoma)	TGI (M14 melanoma)	GI50 (MALME-3M melanoma)	TGI (MALME-3M melanoma)
CC(C)(C)Cn1c(N)nc2ccc(-c3[nH]c(C(C)(C)C)nc3-c3ccc(F)cc3)nc21	10.6 µM	23.5 µM	8.5 µM	23.8 µM	9.47 µM	23.7 µM	5.57 µM	21.4 µM	4.52 µM	19.3 µM	10.8 µM	25.8 µM	3.91 µM	21.1 µM	13.3 µM	40.4 µM	11.4 µM	24.7 µM	4.08 µM	18.1 µM
Cc1ccc(NC(=O)c2ccnc(C(F)(F)F)c2)cc1-c1cc(OCCO)nc(N2CCOCC2)c1	4.09 µM	61.2 µM	1.55 µM	17.2 µM	2.62 µM	12.5 µM	3.31 µM	28.6 µM	0.413 µM	14.8 µM	4.08 µM	> 100 µM	1.62 µM	38.7 µM	3.95 µM	21.5 µM	0.63 µM	5.25 µM	0.108 µM	0.66 µM
COc1ccc(-c2ccc(/C=N/n3cn[nH]c3=S)o2)c([N+](=O)[O-])c1	80.5 µM	> 100 µM	40.2 µM	> 100 µM	33.9 µM	> 100 µM	59.1 µM	> 100 µM	32.6 µM	> 100 µM	38.2 µM	> 100 µM	32.6 µM	> 100 µM	82.9 µM	> 100 µM	49 µM	> 100 µM	23.8 µM	> 100 µM
CCN(CC)CCC(=O)Nc1cccc2c1C(=O)c1c(c(O)c3ccccc3c1O)C2=O	15.5 µM	61.2 µM	80.3 µM	> 100 µM	15 µM	52.2 µM	21.5 µM	> 100 µM	19.3 µM	> 100 µM	10.5 µM	26.9 µM	> 100 µM	> 100 µM	4.05 µM	23.1 µM	35.4 µM	> 100 µM	26.9 µM	88.7 µM
N#C/C(=C\c1cn(-c2ccccc2)c2ccccc12)C(=O)O	44.2 µM	> 100 µM	29 µM	88.8 µM	18.8 µM	43.9 µM	51.1 µM	> 100 µM	53.1 µM	> 100 µM	44.6 µM	> 100 µM	63.1 µM	> 100 µM	39.1 µM	> 100 µM	61.2 µM	> 100 µM	> 100 µM	> 100 µM
COc1cc(N2CCC(N(C)C)CC2)ccc1Nc1ncc(Cl)c(Nc2ccccc2P(C)(C)=O)n1	0.972 µM and 0.545 µM	> 25.2 µM and 3.8 µM	0.483 µM and 0.115 µM	6.08 µM and 3.32 µM	1.73 µM and 0.728 µM	11.3 µM and 7.01 µM	0.971 µM and 0.398 µM	> 72.8 µM	0.261 µM and 0.0794 µM	2.99 µM and 0.785 µM	2.77 µM and 0.926 µM	23.4 µM and > 10 µM	3.24 µM and 0.326 µM	10.5 µM and > 4.56 µM	0.448 µM and 0.615 µM	10.8 µM and > 10 µM	2.23 µM and 0.503 µM	15.3 µM and > 4.88 µM	–	31.7 µM and > 7.77 µM
O=C(Nc1ccccc1Cl)c1cnc2ccc(C3CCNCC3)cn12	6.62 µM	> 100 µM	1.06 µM	> 100 µM	5.6 µM	> 100 µM	3.71 µM	> 100 µM	1.77 µM	18.6 µM	13.5 µM	> 100 µM	1.51 µM	12 µM	> 75.1 µM	> 100 µM	15.2 µM	33.3 µM	22.1 µM	> 94.5 µM
Nc1nc(-n2cccn2)nc(-n2cccn2)c1Br	> 100 µM	> 100 µM	> 100 µM	> 100 µM	> 100 µM	> 100 µM	> 100 µM	> 100 µM	> 100 µM	> 100 µM	> 100 µM	> 100 µM	93.7 µM	> 100 µM	> 100 µM	> 100 µM	> 100 µM	> 100 µM	> 100 µM	> 100 µM
CC[C@@]1(O)C(=O)NCc2c1cc1n(c2=O)Cc2cc3cc4c(cc3nc2-1)OCO4	0.13 µM	2.02 µM	0.517 µM	54.6 µM	14.2 µM	> 95.5 µM	0.328 µM	11.7 µM	2.02 µM	37.3 µM	0.391 µM	6.99 µM	0.417 µM	> 9.04 µM	22.5 µM	97.8 µM	0.441 µM	> 39.2 µM	1.47 µM	35.7 µM
N#Cc1c(NC(=O)c2cccs2)[n+]([O-])c2ccccc2[n+]1[O-]	> 100 µM	> 100 µM	> 100 µM	> 100 µM	> 100 µM	> 100 µM	> 100 µM	> 100 µM	> 100 µM	> 100 µM	63.4 µM	> 100 µM	> 100 µM	> 100 µM	> 100 µM	> 100 µM	> 100 µM	> 100 µM	96.2 µM	> 100 µM
COc1ccc(Cl)cc1N1C(=O)C(Cl)=C(Nc2cccc(O)c2)C1=O	21.8 µM	> 100 µM	6.48 µM	20.1 µM	11.5 µM	36.5 µM	14.7 µM	29.8 µM	19.9 µM	59.9 µM	15.1 µM	31.2 µM	19.2 µM	55.2 µM	16.7 µM	40 µM	14 µM	29.9 µM	14.5 µM	50.4 µM
CCN(CC)c1ccc(/C=N/NC(=O)c2ccc(Nc3ccnc(C(F)(F)F)c3)cc2)c(O)c1	0.362 µM	> 46.9 µM	0.293 µM	2.07 µM	0.109 µM	> 70.1 µM	0.395 µM	> 100 µM	0.339 µM	1.68 µM	0.322 µM	> 33 µM	0.268 µM	2.07 µM	0.152 µM	> 100 µM	0.25 µM	1.42 µM	0.482 µM	5.7 µM
